Consider twelve molecules from patent publication US20240190872A1, “FABI INHIBITORS FOR GRAM-NEGATIVE PATHOGENS” (THE BOARD OF TRUSTEES OF THE UNIVERSITY OF ILLINOIS, priority 2021, published 2024).

What all share (assay type): cell-based
The test system of one experiment is E. coli MG1655. In words: Antimicrobial susceptibility test (MIC). The text has this:
(§1) Bacterial strains. S. aureus ATCC 29213, E. coli MG1655, E. coli BAA-2340, E. coli BAA-2469, E. coli BAA-2471, E. cloacae BAA-2341, E. cloacae BAA-2468, K. pneumoniae BAA-1705, K. pneumoniae BAA-2342, K. pneumoniae BAA-2470, K. pneumoniae BAA-2472, and K. pneumoniae BAA-2473 were obtained from ATCC. E. coli JW5503 and E. coli JW3596 were obtained from the KEIO Collection. E. cloacae ATCC 29893 was provided by W. van der Donk (UIUC). E. coli AR-0346, E. coli AR-0349, E. coli AR-0493, E. coli AR-0495, and K. pneumoniae AR-0347 were obtained from the CDC and FDA AR Isolate Bank. E. coli F20987, E. coli M66623, E. cloacae S28901.1, K. pneumoniae M14723, K. pneumoniae M67198, K. pneumoniae M67297, K. pneumoniae S20595, K. pneumoniae S47889, A. baumannii W41979, A. baumannii F19521, A. baumannii M13100, and A. baumannii WO22 were obtained from the University of Illinois Chicago Medical School. A. baumannii KB304, A. baumannii KB343, and A. baumannii KB357 were provided by J. Quale.
(§2) Antimicrobial susceptibility tests. Susceptibility testing was performed in biological triplicate, using the micro-dilution broth method as outlined by the Clinical and Laboratory Standards Institute. Bacteria were cultured with cation-adjusted Muller-Hinton broth (Sigma-Aldrich, Cat# 90922) in round-bottom 96-well plates (Corning, Cat# 3788). Human serum (pooled gender, 0.2 μm filtered) was purchased from BioIVT (Hicksville, NY).

In another experiment the test system is S. aureus ATCC 29213. The experiment is described as follows: Antimicrobial susceptibility test (MIC), micro-dilution broth. The note with it: S. aureus ATCC 29213.
Excerpt: as §1, §2
(Broth dilution looks for growth in wells or tubes with falling amounts of substance.)

The next experiment relates to E. coli ΔtolC (JW5503). As to conditions: efflux deficient E. coli ΔtolC. The method, then:
The compounds synthesized, shown in Table 1, were evaluated against Gram-positive and Gram-negative reference strains (S. aureus 29213 and E. coli MG1655, respectively), as well as an efflux deficient E. coli strain (ΔtolC, JW5503).
as §1, §2

Converted amounts (≈) assume the structure as drawn. Bounds are passed on as bounds.

Consider `Cc1c(CN(C)C(=O)/C=C/c2cnc3c(c2)CCC(N)C(=O)N3)oc2ccccc12` (racemic) [drawing 108], for which the “MIC E. coli MG1655” value with E. coli MG1655 amounted to 4 µg/mL (≈ 9.89 µM). In the experiment with S. aureus ATCC 29213, the “MIC S. aureus 29213” value stood at 0.016 µg/mL (≈ 0.0396 µM). In the experiment on E. coli ΔtolC (JW5503), the “MIC E. coli ΔtolC” value was 0.031 µg/mL (≈ 0.0766 µM).

Take `Cc1c(CN(C)C(=O)/C=C/c2cnc3c(c2)CC(N)C(=O)N3)oc2cc(F)ccc12.Cl` (stereo not shown): the “MIC E. coli MG1655” value in the experiment on E. coli MG1655 is greater than 32 µg/mL. Further, in the experiment on E. coli MG1655 (E. coli MG1655, 32 μg/mL), the “% @ 32 (in brackets after MIC)” value was determined as 65%. Also, in the experiment with S. aureus ATCC 29213, the “MIC S. aureus 29213” value was 0.062 µg/mL. Besides, the “MIC E. coli ΔtolC” value in the experiment on E. coli ΔtolC (JW5503) is 0.5 µg/mL.

In the case of `Cc1c(CN(C)C(=O)C=Cc2cnc3c(c2)CC2(CCC(N)CC2)C(=O)N3)oc2ccccc12` (mixture of isomers) [(±)-8], the “MIC E. coli MG1655” value with E. coli MG1655 is 16 µg/mL. Besides, the “MIC S. aureus 29213” value in the experiment on S. aureus ATCC 29213 was 0.016 µg/mL. Besides, the “MIC E. coli ΔtolC” value against E. coli ΔtolC (JW5503) is 0.062 µg/mL.

As for `Cc1c(CN(C)C(=O)/C=C/c2cnc3c(c2)CCC(=O)N3)oc2ccccc12` [drawing 82, reference compound], the “MIC S. aureus 29213” value with S. aureus ATCC 29213 lay within 0.008 to 0.016 µg/mL. Moreover, in the experiment on E. coli ΔtolC (JW5503), the “MIC E. coli ΔtolC” value was found to be 0.031 µg/mL (≈ 0.0826 µM).

`Cc1c(CN(C)C(=O)C=Cc2cnc3c(c2)CC2(CC(CN)C2)C(=O)N3)oc2ccccc12` (mixture of isomers) [(±)-7]: in the experiment with E. coli MG1655, the “MIC E. coli MG1655” value was 16 µg/mL. Also, the “MIC S. aureus 29213” value against S. aureus ATCC 29213 stood at 0.031 µg/mL. The “MIC E. coli ΔtolC” value with E. coli ΔtolC (JW5503) is 0.125 µg/mL.

As to `Cc1c(CN(C)C(=O)/C=C/c2cnc3c(c2)CC(N)C(=O)N3)oc2c(F)cccc12.Cl` (stereo not shown), the “MIC E. coli MG1655” value in the experiment with E. coli MG1655 was 8 µg/mL. Besides, the “% @ 4 (in brackets after MIC)” value in the experiment with E. coli MG1655 (E. coli MG1655, 4 μg/mL) is given as 50-80%. In the experiment with S. aureus ATCC 29213, the “MIC S. aureus 29213” value was 0.016 µg/mL. Besides, the “MIC E. coli ΔtolC” value in the experiment on E. coli ΔtolC (JW5503) turned out to be 0.062 µg/mL.

Regarding `Cc1c(CN(C)C(=O)/C=C/c2cnc3c(c2)CC(CN)C(=O)N3)oc2ccccc12.Cl` (racemic), in the experiment on E. coli MG1655, the “MIC E. coli MG1655” value is 8 µg/mL. Further, in the experiment on S. aureus ATCC 29213, the “MIC S. aureus 29213” value amounted to 0.031 µg/mL. In addition, in the experiment on E. coli ΔtolC (JW5503), the “MIC E. coli ΔtolC” value was determined as 0.125 µg/mL.

For `Cc1c(CN(C)C(=O)/C=C/c2cnc3c(c2)CCC(N)C(=O)N3)oc2ccccc12` (racemic) [drawing 87], in the experiment with E. coli MG1655, the “MIC E. coli MG1655” value came out at 4 µg/mL (≈ 9.89 µM). The “MIC S. aureus 29213” value with S. aureus ATCC 29213 was found to be 0.016 µg/mL (≈ 0.0396 µM). The “MIC E. coli ΔtolC” value against E. coli ΔtolC (JW5503) was 0.031 µg/mL (≈ 0.0766 µM).

For `NC1Cc2cc(C=CC(=O)N3CC4C=C(c5ccccc5)CC4C3)cnc2NC1=O` (mixture of isomers), the “MIC E. coli MG1655” value against E. coli MG1655 was determined as 16 µg/mL. Also, the “MIC S. aureus 29213” value against S. aureus ATCC 29213 was 0.062 µg/mL. The “MIC E. coli ΔtolC” value against E. coli ΔtolC (JW5503) came to 0.062 µg/mL.

On to `Cc1c(CN(C)C(=O)/C=C/c2cnc3c(c2)CC(N)C(=O)N3)oc2ccccc12.Cl` (racemic) [reference compound], for which, in the experiment on E. coli MG1655, the “MIC E. coli MG1655” value was 4 µg/mL. Moreover, in the experiment with S. aureus ATCC 29213, the “MIC S. aureus 29213” value is 0.03125 µg/mL. Besides, the “MIC E. coli ΔtolC” value with E. coli ΔtolC (JW5503) is 0.062 µg/mL.

As for `Cc1c(CN(C)C(=O)/C=C/c2cnc3c(c2)CC(CCN)C(=O)N3)oc2ccccc12.Cl` (racemic), the “MIC E. coli MG1655” value in the experiment with E. coli MG1655 was found to be 8 µg/mL. Further, the “MIC S. aureus 29213” value in the experiment with S. aureus ATCC 29213 was found to be 0.016 µg/mL. Further, the “MIC E. coli ΔtolC” value in the experiment on E. coli ΔtolC (JW5503) was found to be 0.062 µg/mL.

Regarding `Cc1c(CN(C)C(=O)/C=C/c2cnc3c(c2)CCC(CCN)C(=O)N3)oc2ccccc12` (racemic) [(±)-13], the “MIC E. coli MG1655” value in the experiment on E. coli MG1655 turned out to be 32 µg/mL (≈ 74 µM). In the experiment on S. aureus ATCC 29213, the “MIC S. aureus 29213” value is 0.062 µg/mL (≈ 0.143 µM). For the same molecule, the “MIC E. coli ΔtolC” value with E. coli ΔtolC (JW5503) was 0.125 µg/mL (≈ 0.289 µM).
